System: IL 1-induced release of neutral protease from rabbit articular chondrocytes
Assay: inhibition of the IL 1-induced release of neutral protease from rabbit articular chondrocytes (azocoll neutral protease assay)
Format: cell-based
Settings: Oryctolagus cuniculus, Chondrocyte, compound 10 min before purified human IL 1, 24 h, read-out: % Inhibition (I.S.D.)
Procedure: The ability of the compounds of the inventions to inhibit interleukin 1 is measured by the ability of the test compounds to inhibit the IL 1-induced release of neutral protease from rabbit articular chondrocytes.
This assay is carried out as follows:
Isolation of rabbit chondrocytes:
Male New Zealand White rabbits are anesthetized with 50 mg/kg of ketamine (i.m.) and killed by an intracardiac injection of 3 mls. of Nembutal. The knee joints of both legs are resected and the articular surfaces are exposed. Cartilage slices are obtained using a scalpel and are placed in a tissue culture dish (100 mm diameter) containing 10 mls of Hank's balanced salt solution (HBSS). The chondrocytes within the cartilage slices are then liberated by a series of enzyme digestions. The slices are incubated for 10 min. at 37° C. in 0.05% hyaluronidase (Sigma H-3884), rinsed with HBSS and incubated with 0.2% trypsin (Sigma T-2395) for 10 min. at 37° C. The slices are rinsed again and incubated for 10 mins. at 37° C. with 1.2% collagenase (Sigma C-5138). The slices are then rinsed again with HBSS and resuspended in 10 ml of Ham's F-12 medium containing 10% fetal bovine calf serum (FCS) and 0.2% collagenase and incubated overnight at 37° C. in a 5% CO2 incubator. The next day, the medium containing the digested cartilage fragments and liberated chondrocytes is transferred to a 15 ml centrifuge tube and the cells are collected by centrifugation and washed twice and resuspended in Ham's F-12 medium. The cells are then plated into 24-well tissue culture plates (2×10^5 cells/well) and incubated at 37° C. until confluent (usually 4-6 days).
Stimulation of chondrocytes and drug treatment:
The confluent chondrocytes are rinsed twice with serum-free Ham's F-12 medium and 1 ml is added to each well. Fifty $1 of purified human IL 1(100 Units/ml; Genzyme Corporation, Boston, MA) is then added to stimulate these cells to secrete neutral protease. To measure drug effects, the cells are treated with test compound 10 min. prior to addition of IL 1. The standard screening dose is 10 $M. Twenty-four hours after IL 1 stimulation, supernatant fluids are collected and assayed for neutral protease activity.
The neutral protease activity of chondrocyte supernatant fluids is determined by their ability to degrade an insoluble protease substrate, azocoll (Sigma). Supernatants are treated for 10 min. at room temperature with 350 $M p-aminophenyl-murcuric acetate to activate the latent enzyme. Three hundred $1 of supernatant is then mixed with 500 $1 of a 20 mg/ml suspension of azocoll and incubated at 37° C. for 18-24 hrs. with gentle rocking. The mixtures are centrifuged and the amount of substrate hydrolyzed is determined by measuring the absorbance of the supernatant at 520 nm.
Drug effects are calculated as the % change in enzyme activity (absorbance)by supernatants from drug-treated chondrocytes relative to enzyme activity of supernatants from vehicle-treated chondrocytes as follows: [formula]

Q: For `Clc1ccc2c(Cl)c3c(nc2c1)CCN(c1ncccn1)C3` [Example 1, 7,10-Dichloro-1,2,3,4-tetrahydro-2-(2-pyrimidinyl)benzo[b][1,6]naphthyridine], which inhibition at 10 µM is on record?
A: 34 ± 8%

Q: How did the inhibition at 10 µM turn out when `Clc1ccc2c(Cl)c3c(nc2c1)CCN(c1ccc2ccccc2n1)C3` [Example 3, 7,10-Dichloro-1,2,3,4-tetrahydro-2-(2-quinolinyl)benzo[b][1,6]naphthyridine] was run?
A: ≤ 20%

Q: `N#Cc1ccc(N2CCc3nc4cc(Cl)ccc4c(Cl)c3C2)nc1` [Example 4, 6-(7,10-Dichloro-3,4-dihydrobenzo[b][1,6]naphthyridin-2(1H)-yl)-3-pyridine-carbonitrile, hemihydrate] was tested. Which inhibition at 5 µM (dose 5 μM) did it give?
A: 83%

Q: What about the inhibition at 10 µM of the same compound?
A: 94%

Q: `Clc1ccc2c(NNc3ccccc3)c3c(nc2c1)CCN(c1cnccn1)C3` [Example 5, 7-Chloro-1,2,3,4-tetrahydro-10-(2-phenylhydrazino)-2-(2-pyrazinyl)benzo[b][1,6]naphthyridine] was tested. Which inhibition at 10 µM did it give?
A: 85 ± 5%
